From patent publication US20210395327A1, “Growth Hormone-Releasing Hormone Antagonists and Uses Thereof” (United States Government As Represented By The Department …, priority 2019, published 2021) come the findings set out here.

Molecules are shown by their SMILES. Non-standard residues stand in square brackets, D forms with d. Residues, ends and D or L forms follow the SMILES beside them. *: point of attachment. Phenylacetyl(2,3,4,5,6-F5) = O=C(Cc1c(F)c(F)c(F)c(F)c1F)*; Phe(F5) = N[C@@H](Cc1c(F)c(F)c(F)c(F)c1F)C(=O)O; Phe(4-Cl) = N[C@@H](Cc1ccc(Cl)cc1)C(=O)O; hArg = N=C(N)NCCCC[C@H](N)C(=O)O; 12Ado = NCCCCCCCCCCCC(=O)O; Nle = CCCC[C@H](N)C(=O)O; Orn = NCCC[C@H](N)C(=O)O; Abu = CC[C@H](N)C(=O)O

Assay [1] has as its system NCI-N87 stomach cancer cells. The assay can be described thus: In vitro cell viability (CellTiter 96), N87. The format is cell-based, human. The conditions noted are these: Table 3B; 5 μM for 72 H; MIA-602 = 1. On the procedure: The inhibitory effects of the various synthesized GHRH antagonists were tested in cell proliferation assays in various human cancer cell lines including stomach cancer (KATOIII, N87), colon cancer (HT-29), urothelial cancer (J82, RT4), pancreatic cancer (PANC-1, CFPAC-1), prostatic cancer (PC3), breast cancer (MX-1, HCC1806), ovarian cancer (SK-OV-3, OVCAR-3) and lung cancer (HCC827, H460).
Cell culture. Human cancer cell lines including pancreatic (PANC-1 and CFPAC-1), lung (HCC827 and H460), stomach (NCI-N87 and KATOIII), urothelial (J82, RT4), prostatic (PC3), breast (MX-1 and HCC 1806), colorectal (HT-29), and ovarian (SK-OV-3 and OVCAR-3) were obtained from the American Type Culture Collection (ATCC) and cultured at 37° C. in a humidified 95% air/5% CO2 atmosphere in the medium recommended by ATCC.
In vitro cell viability. Cell viability was analyzed as follows: cancer cells including pancreatic (PANC-1 and CFPAC-1), lung (HCC827 and H460), stomach (NCI-N87 and KATOIII), urothelial (J82, RT4), prostatic (PC3) and breast (MX-1 and HCC 1806), colorectal (HT-29) and ovarian (SK-OV-3 and OVCAR-3) were grown on 96 well plates to ˜60% confluence, the cells were starved for 24 h in culture medium containing 0.5% FBS. Cells were then treated with GHRH antagonists MIA602 AVR compounds at concentrations of 1, 2.5 or 5 μM, or vehicle (0.1% DMSO) in quintuplicates for 72 hours. The medium was replaced every 48 hours. Cell viability was measured using CellTiter 96 aqueous one solution kit (Promega). Inhibitory effects of tested AVR compounds in comparison to that of MIA602 are presented as inhibitory potency.
Inhibitory effects of selected AVR compounds in comparison to that of MIA602 are presented as inhibitory potency (e.g., percentage of inhibition). […] The cell lines tested including lung cancer HCC827 (FIG. 2A), pancreatic cancer CFPAC-1 (FIG. 2B), stomach cancer N87 (FIG. 2C), colon cancer HT-29 (FIG. 2D), breast cancers MX-1 and HCC1806 (FIGS. 2 E, F). Based on the results of cell proliferation assay after cancer cells were treated with antagonist at concentration of 5 μM for 72H, the relative inhibitory potency of AVR antagonists in comparison to MIA-602 is summarized in Table 3 A and B. Over 60 AVR compounds were tested in 12 cancer cell lines.
Based on the results of cell proliferation assay after cancer cells were treated with antagonist at concentration of 5 µM for 72H, * at concentration of 2 µM for 72 H.

Assay [2] relates to stomach cancer N87 xenograft. The assay can be described thus: Xenograft tumor growth in nude mice, N87. The format is in vivo. The conditions noted are these: for % Inhibition: vs control. Here is the method:
The peptides' activity was compared with GHRH antagonist MIA-602. All statistical analyzses were performed from comparing GHRA antagonists to non-treated tumor (control).
Peptides and chemicals. GHRH antagonists MIA-602 and AVR-GHRH antagonists (see Table 2 above) were synthesized by solid phase methods and purified by HPLC. The peptides were dissolved in DMSO and further diluted in 10% 1,2-propanediol. The final concentration of peptides was 50 µg/ml in 10% 1,2-propanediol containing 0.1% of DMSO.
Cell culture. Human cancer cell lines including pancreatic (PANC-1 and CFPAC-1), lung (HCC827 and H460), stomach (NCI-N87), prostate (PC3), brest (MX-1 and HCC-1806), colorectal (HT-29), and ovarian (SK-OV-3 and OVCAR-3) were obtained from the American Type Culture Collection (ATCC) and cultured at 37° C. in a humidified 95% air/5% CO2 atmosphere in the medium recommended by ATCC.
Xenograft models of human cancers in nude mice. Female athymic (NCr nu/nu) nude mice, 5- to 6-weeks-old, obtained from the Envigo labs (Tampa, Fla.), were housed in laminar airflow cabinets under pathogen-free conditions with a 12-h light/12-h dark schedule, and were fed autoclaved standard chow and water. To generate mice with xenografted tumors, tumor xenografts were initiated by subcutaneous (s.c.) injection of 107 human cancer cells into female nude mice. After about 4 weeks the resulting tumors were dissected and collected after removing necrosis tissues. The tumors were then cut into particles with size of 3 mm3 and transplanted s.c. by trocar needle into experimental animals. When tumors grew to the size of 50-60 mm3 (by volume), […] of 5 μg of GHRH antagonists MIA-602 or AVR-compounds (2-10 μg as indicated), or vehicle solutions (0.1% DMSO in 10% 1,2-propanediol) respectively. Tumor sizes were measured weekly.
Statistical analysis. One-way ANOVA followed by Bonferroni comparison were performed. Data are expressed as Mean±SEM. To determine statistical significance between animal groups, two-tailed Student's t-test was conducted. Differences were considered significant when p<0.05.
Results. […] FIG. 1A-N represents in vivo inhibition of tumor growth during the treatment with GHRH antagonist MIA-602 and selected AVR antagonists in nude mice xenografted with various human tumors including pancreatic cancer PANC-1 (FIG. 1A) and CFPAC-1 (FIG. 1I); lung cancer HCC827 (FIGS. 1B, C) and H460 (FIG. 1H); stomach cancer N87 (FIGS. 1D-F); colon cancer HT-29 (FIG. 1G); breast cancer MX-1 and HCC-1806 (FIGS. 1J, K); ovarian cancer SK-OV-3 and OVACAR-3 (FIGS. 1 L, M) and prostate cancer PC3 (FIG. 1N). See also Table 5.

Another assay relates to HCC827 lung cancer cells. The assay is described as follows: In vitro cell viability, HCC827. Particulars: Table 3B; 5 μM for 72 H; MIA-602 = 1. The format is cell-based, human. In short, it runs like this: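 Cells grown to ~60% confluence, serum-starved 24 h in 0.5% FBS medium, then exposed to compounds at 5 μM (some at 2 μM) or 0.1% DMSO vehicle for 72 h, in quintuplicate, medium changed every 48 h. Viability read by MTS-type CellTiter 96 AQueous assay; values are inhibitory potency relative to MIA602.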

[3] abbreviates: Table 4D, Stomach Ca N87, 10 weeks, 2 μg/day s.c.
[4] abbreviates: Table 4E, Stomach Ca N87, 4 weeks, 2 μg/day s.c.
The mark [5] stands for this setting: Table 4E, Stomach Ca N87, 4 weeks, 5 μg/day s.c.

For `CCCC[C@H](NC(=O)[C@@H](NC(=O)[C@H](CC(=O)O)NC(=O)[C@H](CCC(N)=O)NC(=O)[C@H](CC(C)C)NC(=O)[C@H](CC(C)C)NC(=O)[C@H](CCCCN)NC(=O)[C@H](CCCNC(=N)N)NC(=O)[C@H](C)NC(=O)[C@H](CO)NC(=O)[C@H](CC(C)C)NC(=O)[C@H](CCC(N)=O)NC(=O)[C@H](CC)NC(=O)[C@H](CC(C)C)NC(=O)[C@@H](NC(=O)[C@H](CCCCN)NC(=O)[C@H](CCCNC(=N)N)NC(=O)[C@H](Cc1ccc(OC)cc1)NC(=O)[C@H](CCCCNC(=N)N)NC(=O)[C@H](CC(N)=O)NC(=O)[C@@H](NC(=O)[C@H](Cc1ccc(Cl)cc1)NC(=O)[C@@H](NC(=O)[C@H](C)NC(=O)[C@H](CC(=O)O)NC(=O)[C@@H](CCCNC(=N)N)NC(=O)[C@H](Cc1ccc(O)cc1)NC(=O)CCCCCCCCCCCNC(=O)Cc1c(F)c(F)c(F)c(F)c1F)[C@@H](C)CC)[C@@H](C)O)C(C)C)[C@@H](C)CC)C(=O)N[C@H](CCCNC(=N)N)C(=O)N[C@@H](CCCCNC(=N)N)C(=O)NCCCCCCCCCCCC(N)=O` [AVR-333, 5FPhAC-Ada-Tyr-DArg-Asp-Ala-Ile-Cpa-Thr-Asn-Har-Tyr(Me)-Arg-Lys-Val-Leu-Abu-Gln-Leu-Ser-Ala-Arg-Lys-Leu-Leu-Gln-Asp-Ile-Nle-DArg-Har-Ada-NH2] ({Phenylacetyl(2,3,4,5,6-F5)-12Ado}-Y[dR]DAI[Phe(4-Cl)]TN[hArg]Y(Me)RKVL[Abu]QLSARKLLQDI[Nle][dR][hArg][12Ado]-NH2), in assay [1], the “In vitro relative inhibitory potency in comparison to MIA-602, NCI-N87” value is 1.4. Also, in assay [2] (setting [3]), the “Tumor Size (mm^3)” value was 454.00 mm^3 and the “% Inhibition” value is listed as 62.9%. The “In vitro relative inhibitory potency in comparison to MIA-602, HCC827” value in the assay on HCC827 lung cancer cells was 1.177.
With `CCCC[C@H](NC(=O)[C@@H](NC(=O)[C@H](CC(=O)O)NC(=O)[C@H](CCC(N)=O)NC(=O)[C@H](CC(C)C)NC(=O)[C@H](CC(C)C)NC(=O)[C@H](CCCN)NC(=O)[C@H](Cc1c[nH]cn1)NC(=O)[C@H](C)NC(=O)[C@H](CO)NC(=O)[C@H](CC(C)C)NC(=O)[C@H](CCC(N)=O)NC(=O)[C@H](CC)NC(=O)[C@H](CC(C)C)NC(=O)[C@@H](NC(=O)[C@H](CCCN)NC(=O)[C@H](Cc1c[nH]cn1)NC(=O)[C@H](Cc1ccc(OC)cc1)NC(=O)[C@H](CCCCNC(=N)N)NC(=O)[C@H](C)NC(=O)[C@@H](NC(=O)[C@H](Cc1c(F)c(F)c(F)c(F)c1F)NC(=O)[C@@H](NC(=O)[C@H](C)NC(=O)[C@H](CC(=O)O)NC(=O)[C@@H](CCCNC(=N)N)NC(=O)[C@H](Cc1ccc(O)cc1)NC(=O)CCCCCCCCCCCNC(=O)Cc1c(F)c(F)c(F)c(F)c1F)[C@@H](C)CC)[C@@H](C)O)C(C)C)[C@@H](C)CC)C(=O)N[C@H](CCCNC(=N)N)C(=O)N[C@@H](CCCCNC(=N)N)C(=O)NCCCCCCCCCCCC(N)=O` [AVR-553, 5FPhAC-Ada-Tyr-DArg-Asp-Ala-Ile-5FPhe-Thr-Ala-Har-Tyr(Me)-His-Orn-Val-Leu-Abu-Gln-Leu-Ser-Ala-His-Orn-Leu-Leu-Gln-Asp-Ile-Nle-DArg-Har-Ada-NH2] ({Phenylacetyl(2,3,4,5,6-F5)-12Ado}-Y[dR]DAI[Phe(F5)]TA[hArg]Y(Me)H[Orn]VL[Abu]QLSAH[Orn]LLQDI[Nle][dR][hArg][12Ado]-NH2), in assay [1], the “In vitro relative inhibitory potency in comparison to MIA-602, NCI-N87” value is 1.26. Moreover, in assay [2] (setting [4]), the “Tumor Growth %” value is reported as 532.7% and the “% Inhibition” value is reported as 40.3%. In assay [2] (setting [5]), the “Tumor Growth %” value turned out to be 283.3% and the “% Inhibition” value is 68.3%. Also, the “In vitro relative inhibitory potency in comparison to MIA-602, HCC827” value with HCC827 lung cancer cells was 2.582.

As usually defined, the % Inhibition is the percentage by which the read-out fell short of the control. Higher therefore signals strong suppression.
